# Experimental data taken from article PMC10301432, “Antiplasmodial, Trypanocidal, and Genotoxicity In Vitro Assessment of New Hybrid α,α-Difluorophenylacetamide-statin Derivatives” (Pharmaceuticals, 2023).
# Entries after “also recorded” stand apart in the source; their conditions may differ. Like-named read-outs stand apart in the source and are kept apart here.
# Columns and labels:
# [1] = system: CHO-K1 cells; format: cell-based, Chinese Hamster
# Method: (§1) Fresh HepG2 and CHO-K1 cells were seeded at the density of 1 × 10^5 cells/mL into 24-well plates (1 mL/per well). The compounds 13 (a–d) were then added to the medium to final concentrations of 500, 1000 and 2000 µM and incubation continued for 3 h or 24 h. DMSO 10% was used as the negative control, and, BaP (80 µM) for HepG2 and MMC (5 µM) for CHO-K1 were the positive controls. After exposure to the compounds, the cells were incubated for more than 24 h under growth conditions before quantification of the micronuclei and cytotoxicity. The cytogenetic studies were carried out in triplicate as described previously (see [51]). In order to determine the mitotic index and the number of cells with micronuclei, the medium was replaced by a cold methanol-glacial acetic acid (3:1) fixative for 30 min, and the cells then rinsed with distilled water for 2 min and air dried. The fixed cells were stained with 4,6-diamidino-2-phenylindole (DAPI) ([…]) dissolved in McIlvaine buffer (0.1 M citric acid plus 0.2 M Na2HPO4, pH 7.0) for 60 min, washed with McIlvaine buffer for 5 min, briefly rinsed with distilled water and mounted in glycerol. To determine the mitotic index and the number of cells with micronuclei, 1000 cells per well (3000 cells per concentration) were analyzed under a fluorescence microscope. The results for micronuclei were presented as the percentage of cells containing micronuclei in the 3000 cells/concentration group analyzed. Cells that glowed brightly and had homogenous nuclei were considered as having normal phenotypic morphology. Apoptotic nuclei were identified by the condensed chromatin at the periphery of the nuclear membrane or by fragmented nuclear body morphology. Necrotic cells presented chromatin forms with irregularly shaped aggregates, a pyknotic nucleus (shrunken and darkly stained) and cell membrane disruption, with cellular debris spilled into the extracellular milieu. Once again, 3000 cells were counted and the percentage of viable cells was evaluated, discounting apoptotic and necrotic cells. Statistical differences between the groups were analyzed by two-way ANOVA (p < 0.01) and Tukey’s post hoc test.
# [2] = in vitro; format: cell-based; conditions: human
# Method: Human hepatocellular carcinoma (HepG2) and Chinese Hamster Ovary (CHO-K1) cells obtained from the American Type Culture Collection (Manassas, VA, USA) were cultured in Eagle’s medium (MEM, Gibco®, Waltham, MA, USA) containing 10% fetal bovine serum (FBS) plus 100 µg/mL streptomycin and 100 µg/mL penicillin at 37 °C in a 5% CO2 atmosphere. Logarithmic-phase cells were used in all the experiments.
# Fresh HepG2 and CHO-K1 cells were seeded at a density of 1 × 10^4/well. […] Briefly, after treatment, the culture medium was replaced by 90 μL fresh culture medium and 10 μL WST-1 reagent and incubated at 37 °C and 5% CO2 for 3 h. The absorbance was then measured at 440 nm according to the kit protocol.
# [3] = system: CHO-K1 and HepG2 cell lineages; format: cell-based
# Method: as §1, with “Necrotic cells presented chromatin forms with irregularly shaped aggregates, a pyknotic nucleus (shrunken and darkly stained) and cell membrane disruption, with cellular debris spilled into the extracellular milieu.” left out
# [4] = in vitro; format: cell-based; conditions: mouse
# Method: Primary cultures of cardiac cells (CC) were obtained as reported in [50]. The cultures were sustained in Dulbecco’s modified Eagle’s medium (DMEM) supplemented with 10% horse serum, 5% fetal bovine serum (FBS), 2.5 mM CaCl2, 1 mM L-glutamine, and 2% chicken embryo extract. Cell cultures were maintained at 37 °C in an atmosphere of 5% CO2, and assays were run at least three times in triplicate.
# (§2) Cardiac cell cultures were incubated for 24 h at 37 °C with different concentrations of the compounds (up to 200 µM) diluted in DMEM (without phenol red). Their morphology and spontaneous contractibility were evaluated by light microscopy and then the cellular viability was determined by the PrestoBlue® assay. For this colorimetric bioassay, PrestoBlue® (Invitrogen, Waltham, MA, USA) was added to each well (using a 10:1 medium/dye), the plate was further incubated for 24 h followed by optical density (OD) measurement performed at 570 and 600 nm, as recommended by the manufacturer.
# [5] = in vitro; format: cell-based; conditions: mouse; remark: listed apart in the source
# Method: as §2
# [6] = system: P. falciparum parasites (W2 clone) chloroquine-resistant; experiment: Antiplasmodial activity, anti-HRPII assay; format: cell-based, Plasmodium falciparum; conditions: for SI: LC50 (HepG2)/EC50 (P. falciparum); for EC50: P. falciparum W2 clone, 24 h at 37 °C, read-out: EC50; for Antiplasmodial Activity: summarized outcome
# Excerpt: P. falciparum W2 clone was maintained in continuous culture as previously described. […] Prior to testing, the ring-stage parasites were synchronized using sorbitol.
# The test quantification was read at 450 nm on a spectrophotometer (SpectraMax340PC384, Molecular Devices Sunnyvale, CA, USA), and the drug activity was expressed as the half-maximal inhibitory concentration (EC50) compared to the drug-free controls using the curve-fitting software Origin 8.0 (OriginLab Corporation, Northampton, MA, USA).
# [7] = system: HepG2 cells; experiment: In vitro micronuclei assay, HepG2; format: cell-based, human; conditions: HepG2; 3 h of exposure
# Method: as §1
# [8] = system: trypomastigote forms of T. cruzi (Y strain); experiment: Trypanocidal activity on bloodstream trypomastigotes; format: cell-based, Trypanosoma cruzi; conditions: for EC50: Trypanosoma cruzi, bloodstream trypomastigotes, Y strain, 24 h at 37 °C
# Method: Bloodstream trypomastigote forms (BT) of the Y strain were obtained from infected albino Swiss mice at the peak of parasitemia, isolated by differential centrifugation and resuspended in DMEM to a parasite concentration of 10^7 cells/mL in the presence of 10% of mouse blood. This suspension (100 µL) was added in the same volume of 13 (a–d) and 14 (a–d) previously prepared at twice the desired final concentrations.
# [9] = in vitro; conditions: Salmonella enterica serovar Typhimurium, pH 7.4
# [10] = system: S. typhimurium TA97, TA98, TA100, TA102 and TA104 strains; experiment: Salmonella/microsome assay, overall outcome; conditions: all strains, −S9 and +S9; summarized outcome
# Method: The mutagenicity reverse mutation test was carried out to investigate the potential of 13 (a–d) to induce genetic mutation in S. typhimurium TA97, TA98, TA100, TA102 and TA104 strains. The test was carried out according to the pre-incubation method, both in the absence and presence of a metabolic activation system (4% S9 mix, Aroclor-pre-induced, from Moltox Inc., Boone, NC, USA). DMSO 10% served as the negative control while known mutagens were used as the positive control substances. […] A dose-finding test was carried out with and without the metabolic activation system (S9 mix) for each tester strain.
# For the assays without metabolic activation, 0.5 mL of 0.1 mol/L sodium-phosphate buffer (pH 7.4) was added, and for the assays in the presence of metabolic activation, 0.5 mL S9 mix was mixed with 0.1 mL culture medium (2 × 10^8 cells/mL) plus 0.1 mL of each compound solutions. The mixtures were incubated in a shaker at 37 °C (pre-incubation). After 30 min pre-incubation under light protection, the mixture was added to and mixed with 2 mL top agar containing 0.05 mmol/L L-histidine and D-biotin for the S. typhimurium strains. Each of these was then spread on a minimum glucose agar plate. After the top agar solidified, the plates were incubated at 37 °C for 60–72 h. Each tester strain was assayed in triplicate, and the number of revertant colonies was counted for each tester strain and treatment group [58].
# [11] = system: Salmonella enterica serovar Typhimurium TA100; experiment: Salmonella/microsome assay, TA100
# [12] = Plasmodium falciparum, W2, 24 h
SMILES,CC50 at 24 h [2] [µM],CC50 at 24 h [4] [µM],CC50 at 96 h [5] [µM],SI [6],"EC50 [6, 12] [µM]",Antiplasmodial Activity [6],micronuclei formation (genotoxicity) [7],EC50 [8] [µM],Bacterial Mutagenicity [10],"revertant His+ colonies TA100 ([11]; +S9, 3 µM)","revertant His+ colonies TA100 ([11]; +S9, 15 µM)","revertant His+ colonies TA100 ([11]; +S9, 30 µM)","revertant His+ colonies TA100 ([11]; +S9, 150 µM)","revertant His+ colonies TA100 ([11]; +S9, 300 µM)","revertant His+ colonies TA100 ([11]; +S9, 1500 µM)","revertant His+ colonies TA100 ([11]; −S9, 3 µM)","revertant His+ colonies TA100 ([11]; −S9, 15 µM)","revertant His+ colonies TA100 ([11]; −S9, 30 µM)","revertant His+ colonies TA100 ([11]; −S9, 150 µM)","revertant His+ colonies TA100 ([11]; −S9, 300 µM)",also measured
"CC(=O)Nc1ccccc1C(F)(F)C(=O)NCC[C@@H]1C[C@H](CC(=O)OC(C)(C)C)OC(C)(C)O1 [Compound 13a, tert-Butyl 2-((4R,6R)-6-(2-(2-(2-acetamidophenyl)-2,2-difluoroacetamido)ethyl)-2,2-dimethyl-1,3-dioxan-4-yl)acetate]",> 1000,> 500,112 ± 28.3,Inactive,> 62,No,did not induce micronuclei formation; also recorded: non-genotoxic,> 500,Yes,211 ± 37,223 ± 15,241 ± 36,244 ± 14,270 ± 45,290 ± 31,117 ± 43,136 ± 13,139 ± 13,142 ± 5,162 ± 37,"micronuclei formation (genotoxicity) [1]: genotoxic; Mammalian Cell Genotoxicity [3]: Yes; cytotoxicity (survival rate) in micronuclei assay [7]: significant cytotoxic effects upon 1000 µM; CC50 [9]: 1480 ± 56.1 µM; revertant His+ colonies TA100 ([11]; −S9, 1500 µM): 179 ± 34"
"CC(=O)Nc1ccc(C)cc1C(F)(F)C(=O)NCC[C@@H]1C[C@H](CC(=O)OC(C)(C)C)OC(C)(C)O1 [Compound 13b, tert-Butyl 2-((4R,6R)-6-(2-(2-(2-acetamido-5-methylphenyl)-2,2-difluoroacetamido)ethyl)-2,2-dimethyl-1,3-dioxan-4-yl)acetate]",> 1000,> 500,114 ± 35.4,>70,< 14,Yes,statistical enhancement; also recorded: genotoxic; also recorded: only increased micronucleation in HepG2 cells at >2000 µM,> 500,not mutagenic and no mutagenic potential and No,179 ± 38,188 ± 23,228 ± 46,260 ± 32,306 ± 60,333 ± 45,145 ± 11,146 ± 1,145 ± 17,143 ± 40,144 ± 8,"mitotic index [1]: did not affect the mitotic index; Mammalian Cell Genotoxicity [3]: Yes; EC50 [6]: 14.3 ± 0.2 µM; cytotoxicity (survival rate) in micronuclei assay [7]: statistical enhancement; also recorded: cytotoxic; CC50 [9]: > 1500 µM; revertant His+ colonies TA100 ([11]; −S9, 1500 µM): 178 ± 10"
"CC(=O)Nc1ccc(Cl)cc1C(F)(F)C(=O)NCC[C@@H]1C[C@H](CC(=O)OC(C)(C)C)OC(C)(C)O1 [Compound 13c, tert-Butyl 2-((4R,6R)-6-(2-(2-(2-acetamido-5-chlorophenyl)-2,2-difluoroacetamido)ethyl)-2,2-dimethyl-1,3-dioxan-4-yl)acetate]",> 1000,> 500,153 ± 25.2,>85,< 14,Yes,did not induce micronuclei formation,28.2 ± 0.75,not mutagenic and No,223 ± 39,223 ± 47,228 ± 17,278 ± 5,286 ± 18,300 ± 15,135 ± 38,135 ± 21,135 ± 30,140 ± 31,164 ± 17,"mitotic index [1]: did not affect the mitotic index; EC50 [6]: 11.8 ± 2 µM; SI ([8]; LC50 (cardiac cells)/EC50 (trypomastigotes)): >17.7; revertant His+ colonies TA100 ([11]; −S9, 1500 µM): 168 ± 15"
